From patent US10899753B2, “Inhibiting agents for Bruton's tyrosine kinase” (BIOGEN MA INC., priority 2018, dated 2021)

Tests used:
BTK [1] = target: T1, BTK (Homo sapiens (Human), UniProt Q06187); experiment: In Vitro PD Assay in Human Whole Blood (pBTK assay); type: cell-based; settings: human heparinized whole blood, 37° C. for 30 min, total BTK capture and phosphotyrosine detection (ECL)
Summary of the method: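 Heparinized human venous whole blood spiked with serially diluted compound (0.1% DMSO final) and incubated 30 min at 37° C. Lysed with protease/phosphatase inhibitors (high control +PPi, low control −PPi lacking phosphatase inhibitors); total BTK captured and phosphotyrosine detected.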

BTK [2] = target: T1, BTK; experiment: In Vitro BTK Kinase Assay: BTK-POLYGAT-LS ASSAY; type: biochemical; settings: fluorescein-labeled polyGAT peptide 100 nM, BTK enzyme 0.25 nM, 30 minutes, TRF
Summary of the method: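 ATP […] and polyGAT peptide (100 nM), final concentrations, in Tris-HCl pH 7.5 kinase buffer with MgCl2, DTT, Triton X-100 and casein. Reaction run 30 min, stopped with EDTA, then 45 min at room temperature.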

T1 sequence (Q06187 whole entry): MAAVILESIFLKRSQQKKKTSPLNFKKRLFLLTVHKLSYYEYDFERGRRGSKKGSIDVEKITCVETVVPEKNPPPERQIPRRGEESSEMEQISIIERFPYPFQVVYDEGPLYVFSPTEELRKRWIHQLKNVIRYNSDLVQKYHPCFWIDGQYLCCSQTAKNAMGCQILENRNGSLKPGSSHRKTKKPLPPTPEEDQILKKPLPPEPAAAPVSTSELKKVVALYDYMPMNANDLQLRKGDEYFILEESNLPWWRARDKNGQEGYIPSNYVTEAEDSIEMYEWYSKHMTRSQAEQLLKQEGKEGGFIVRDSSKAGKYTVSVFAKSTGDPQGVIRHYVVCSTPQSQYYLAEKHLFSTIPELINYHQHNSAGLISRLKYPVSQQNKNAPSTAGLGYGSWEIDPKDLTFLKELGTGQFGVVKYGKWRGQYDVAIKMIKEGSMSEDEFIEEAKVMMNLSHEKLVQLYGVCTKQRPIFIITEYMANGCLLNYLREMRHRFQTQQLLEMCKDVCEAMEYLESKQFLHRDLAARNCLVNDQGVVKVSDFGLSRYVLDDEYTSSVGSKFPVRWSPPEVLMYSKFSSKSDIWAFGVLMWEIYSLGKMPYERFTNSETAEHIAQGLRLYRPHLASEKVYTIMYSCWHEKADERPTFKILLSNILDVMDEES

Row | SMILES | IC50 (BTK [1]) | IC50 (BTK [2])
1 | Cn1ccc(Nc2ncnc(-c3ccc4c(c3)CN(C3COC3)CC[C@H]4NC(=O)c3coc(C(C)(C)C)n3)n2)n1 [Compound 94, (R)-2-(tert-butyl)-N-(8-(4-((1-methyl-1H-pyrazol-3-yl)amino)-1,3,5-triazin-2-yl)-2-(oxetan-3-yl)-2,3,4,5-tetrahydro-1H-benzo[c]azepin-5-yl)oxazole-4-carboxamide] | 100 to 500 nM | 1 to 10 nM
2 | Cn1ccc(Nc2ncnc(-c3ccc4c(c3)CN(CC(F)(F)F)CC[C@H]4NC(=O)c3coc(C(C)(C)C)n3)n2)n1 [Compound 95, (R)-2-(tert-butyl)-N-(8-(4-((1-methyl-1H-pyrazol-3-yl)amino)-1,3,5-triazin-2-yl)-2-(2,2,2-trifluoroethyl)-2,3,4,5-tetrahydro-1H-benzo[c]azepin-5-yl)oxazole-4-carboxamide] | 500 to 10000 nM | < 1 nM
3 | Cn1ccc(Nc2ncnc(-c3ccc4c(c3)CN(CC(F)(F)F)CC[C@H]4NC(=O)c3nc(C(C)(C)C)co3)n2)n1 [Compound 96, (R)-4-(tert-butyl)-N-(8-(4-((1-methyl-1H-pyrazol-3-yl)amino)-1,3,5-triazin-2-yl)-2-(2,2,2-trifluoroethyl)-2,3,4,5-tetrahydro-1H-benzo[c]azepin-5-yl)oxazole-2-carboxamide] | 500 to 10000 nM | 1 to 10 nM
4 | Cn1ccc(Nc2ncnc(-c3ccc4c(c3)CN(C3COC3)CC[C@H]4NC(=O)c3nc(C(C)(C)C)no3)n2)n1 [Compound 98, (R)-3-(tert-butyl)-N-(8-(4-((1-methyl-1H-pyrazol-3-yl)amino)-1,3,5-triazin-2-yl)-2-(oxetan-3-yl)-2,3,4,5-tetrahydro-1H-benzo[c]azepin-5-yl)-1,2,4-oxadiazole-5-carboxamide] | 100 to 500 nM | < 1 nM
5 | Cc1cc(-c2ncnc(Nc3cnn(C)c3)n2)ccc1CNC(=O)c1cnc(C(C)(C)C)o1 [Compound 99, 2-(tert-butyl)-N-(2-methyl-4-(4-((1-methyl-1H-pyrazol-4-yl)amino)-1,3,5-triazin-2-yl)benzyl)oxazole-5-carboxamide] | 500 to 10000 nM | < 1 nM
6 | Cc1c(CNC(=O)c2coc(C(C)(C)C)n2)ccc(-c2ncnc(Nc3ccn(C)n3)n2)c1F [Compound 100, 2-(tert-butyl)-N-(3-fluoro-2-methyl-4-(4-((1-methyl-1H-pyrazol-3-yl)amino)-1,3,5-triazin-2-yl)benzyl)oxazole-4-carboxamide] | 500 to 10000 nM | < 1 nM
7 | C[C@@H](NC(=O)c1noc(C(C)(C)C)n1)c1ccc(-c2ncnc(Nc3ccn(C)n3)n2)c(F)c1Cl [Compound 101, (R)-5-(tert-butyl)-N-(1-(2-chloro-3-fluoro-4-(4-((1-methyl-1H-pyrazol-3-yl)amino)-1,3,5-triazin-2-yl)phenyl)ethyl)-1,2,4-oxadiazole-3-carboxamide] | 500 to 10000 nM | < 1 nM
8 | C[C@@H](NC(=O)c1nc(C(C)(C)C)no1)c1ccc(-c2ncnc(Nc3ccn(C)n3)n2)c(F)c1Cl [Compound 102, (R)-3-(tert-butyl)-N-(1-(2-chloro-3-fluoro-4-(4-((1-methyl-1H-pyrazol-3-yl)amino)-1,3,5-triazin-2-yl)phenyl)ethyl)-1,2,4-oxadiazole-5-carboxamide] | 500 to 10000 nM | < 1 nM
9 | Cn1cc(Nc2ncnc(-c3ccc(CNC(=O)c4coc(C(C)(C)C)n4)c(Cl)c3F)n2)cn1 [Compound 103, 2-(tert-butyl)-N-(2-chloro-3-fluoro-4-(4-((1-methyl-1H-pyrazol-4-yl)amino)-1,3,5-triazin-2-yl)benzyl)oxazole-4-carboxamide] | 100 to 500 nM | < 1 nM
10 | Cn1ccc(Nc2ncnc(-c3ccc(CNC(=O)c4noc(C5(C)CC5)n4)c(Cl)c3F)n2)n1 [Compound 104, N-(2-chloro-3-fluoro-4-(4-((1-methyl-1H-pyrazol-3-yl)amino)-1,3,5-triazin-2-yl)benzyl)-5-(1-methylcyclopropyl)-1,2,4-oxadiazole-3-carboxamide] | 500 to 10000 nM | < 1 nM
11 | Cc1c(CNC(=O)c2cn(C(C)(C)C)nn2)ccc(-c2ncnc(Nc3cnn(C)c3)n2)c1F [Compound 105, 1-(tert-butyl)-N-(3-fluoro-2-methyl-4-(4-((1-methyl-1H-pyrazol-4-yl)amino)-1,3,5-triazin-2-yl)benzyl)-1H-1,2,3-triazole-4-carboxamide] | 100 to 500 nM | < 1 nM
12 | Cc1c(CNC(=O)c2ccn(C(C)(C)C)n2)ccc(-c2ncnc(Nc3cnn(C)c3)n2)c1F [Compound 106, 1-(tert-butyl)-N-(3-fluoro-2-methyl-4-(4-((1-methyl-1H-pyrazol-4-yl)amino)-1,3,5-triazin-2-yl)benzyl)-1H-pyrazole-3-carboxamide] | 500 to 10000 nM | < 1 nM
13 | Cc1cc(-c2ncnc(Nc3cnn(C)c3)n2)ccc1CNC(=O)c1coc(C(C)(C)C)n1 [Compound 107, 2-(tert-butyl)-N-(2-methyl-4-(4-((1-methyl-1H-pyrazol-4-yl)amino)-1,3,5-triazin-2-yl)benzyl)oxazole-4-carboxamide] | 500 to 10000 nM | < 1 nM
14 | Cc1cc(-c2ncnc(Nc3cnn(C)c3)n2)ccc1CNC(=O)c1cc(C(C)(C)C)no1 [Compound 108, 3-(tert-butyl)-N-(2-methyl-4-(4-((1-methyl-1H-pyrazol-4-yl)amino)-1,3,5-triazin-2-yl)benzyl)isoxazole-5-carboxamide] | 100 to 500 nM | < 1 nM
15 | Cc1cc(-c2ncnc(Nc3cnn(C)c3)n2)ccc1CNC(=O)c1cn(C(C)(C)C)nn1 [Compound 109, 1-(tert-butyl)-N-(2-methyl-4-(4-((1-methyl-1H-pyrazol-4-yl)amino)-1,3,5-triazin-2-yl)benzyl)-1H-1,2,3-triazole-4-carboxamide] | 100 to 500 nM | 1 to 10 nM
16 | Cn1ccc(Nc2ncnc(-c3ccc4c(c3F)CCCC[C@H]4NC(=O)c3noc(C(C)(C)C)n3)n2)n1 [Compound 111, (R)-5-(tert-butyl)-N-(1-fluoro-2-(4-((1-methyl-1H-pyrazol-3-yl)amino)-1,3,5-triazin-2-yl)-6,7,8,9-tetrahydro-5H-benzo[7]annulen-5-yl)-1,2,4-oxadiazole-3-carboxamide] | 100 to 500 nM | < 1 nM
17 | Cn1ccc(Nc2ncnc(-c3ccc4c(c3F)CCCC[C@H]4NC(=O)c3coc(C(C)(C)C)n3)n2)n1 [Compound 112, (R)-2-(tert-butyl)-N-(1-fluoro-2-(4-((1-methyl-1H-pyrazol-3-yl)amino)-1,3,5-triazin-2-yl)-6,7,8,9-tetrahydro-5H-benzo[7]annulen-5-yl)oxazole-4-carboxamide] | 500 to 10000 nM | < 1 nM
18 | Cc1c(CNC(=O)c2noc(C3(C)CC3)n2)ccc(-c2ncnc(Nc3ccn(C)n3)n2)c1F [Compound 113, N-(3-fluoro-2-methyl-4-(4-((1-methyl-1H-pyrazol-3-yl)amino)-1,3,5-triazin-2-yl)benzyl)-5-(1-methylcyclopropyl)-1,2,4-oxadiazole-3-carboxamide] | 100 to 500 nM | < 1 nM
19 | Cc1cc(-c2ncnc(Nc3cnn(C)c3)n2)ccc1CNC(=O)c1nc(C(C)(C)C)co1 [Compound 114, 4-(tert-butyl)-N-(2-methyl-4-(4-((1-methyl-1H-pyrazol-4-yl)amino)-1,3,5-triazin-2-yl)benzyl)oxazole-2-carboxamide] | 500 to 10000 nM | < 1 nM
